{"source": "paper PMC3723855", "about": "“R31C GNRH1 Mutation and Congenital Hypogonadotropic Hypogonadism” (PLoS ONE, 2013)", "key": {"ERK1/2 (LbetaT2 cells)": {"tested_on": "ERK1/2 (LbetaT2 cells)", "assay": "ERK1/2 phosphorylation Western blot in LbetaT2 cells", "type": "cell-based, murine", "method": "Figure 4 ERK1/2 phosphorylation by Western blot. (A) LbetaT2 cells were starved overnight in serum-free DMEM and then treated by 10 nM WT, 10 nM R31C, 10 nM WT +10 nM R31C peptides or vehicle for 0, 5, 10 and 30 minutes. Representative of four experiments. […] Lysates were analyzed by Western Blotting using phospho-ERK1/2 antibodies (Cell Signaling®, open arrow) and mouse monoclonal anti alpha-tubulin (Sigma Aldrich®, St. Louis, MO, close arrow). Similar results on ERK intensity and kinetics were obtained using transiently transfected HEK293T cells.\nLbetaT2 cells were starved 18 h in serum-free DMEM before treatments, then exposed to 10 nM of WT, 10 nM of R31C, the combination of 10 nM of each peptide or vehicle. Cells were harvested at 0, 5, 10, 15 and 30 minutes after treatment. Western blotting analyses were performed as previously described."}, "human GnRH receptor": {"tested_on": "human GnRH receptor", "assay": "SRE-coupled luciferase assay in HEK293T cells co-transfected with human GnRH receptor", "type": "cell-based", "details": "for EC50: human GnRH receptor", "method": "Figure 3 SRE-coupled luciferase assay. (A) HEK293T cells were exposed to graded concentrations of wild type (WT) GnRH, R31C and equimolar concentrations of WT + R31C during five hours. Luciferase activity arbitrary units by luminometry (a.u.) have been shown as ratio on beta-galactosidase activity by optical density used as transfection efficiency internal control. This experience was conducted eight times. (B) Representation of individual values of EC-50 (calculated with Arcsin “P” root transformation) from n = 8 dose-response experiments.\nluc2P/SRE/Hygro plasmid (Promega, Madison, WI) was used to test luciferase production in response to MAP kinase activation as a reporter gene system. HEK293T cells (1.2×10^4 cells/well) were seeded 72 h before testing in high-glucose Dulbecco's minimal essential medium (DMEM, Invitrogen, Cergy Pontoise, France) containing 2 mM glutamine, 100 IU/mL penicillin, […] streptomycin, and 10% heat-inactivated fetal calf serum at 37°C in 96-well plates. Twenty-four hours before testing, cells were co-transfected in serum free OptiMEM, using Lipofectamine 2000 (Invitrogen, Cergy Pontoise, France) with the plasmids for human GnRH receptor, luc2P/SRE/Hygro and pMIR-REPORT™ beta-galactosidase vector (Applied Biosystems, Foster City, CA). […] After 5 h-incubation cells were harvested and assayed for luciferase activities as previously described, using a luminometer (Victor, Perkin Elmer, Waltham, MA). To standardize for transfection efficiency, the relative light units were normalized by the galactosidase activity at optical density. EC-50 and Emax values were calculated using Graphpad Prism (GraphPad Software Inc)."}, "GnRH-R": {"tested_on": "GnRH-R", "assay": "Binding after pre-incubation and washout (covalent binding test), transfected COS-7 cells", "parameters": "species or system human", "details": "for covalent binding to receptor / subsequent binding of radiolabeled GnRH analog after pre-incubation and washing: WT GnRH 10^−8 M or R31C GnRH 10^−5 M, 2 h, 4°C, washed, 1 h, two experiments in triplicate", "method": "Figure 2 Binding of WT and R31C GnRH to the GnRH receptor (GnRH-R). […] Data are the means of two experiments performed in triplicate.\nWe hypothesized that the cysteine in position 8 of the R31C GnRH might form disulfide bridges with cysteine residues in the receptor that are not in disulfide bridges. There are three such cysteines: cysteine 218, cysteine 279 and cysteine 317. In order to examine this possibility the effects of R31C GnRH pre-incubation on subsequent binding of a radio-labelled GnRH analog was examined. […] After treatment, the cells were extensively washed to remove all non-covalently bound peptide."}, "lhb (LbetaT2 cells)": {"tested_on": "lhb (LbetaT2 cells)", "assay": "lhb transcription (RT-qPCR) in LbetaT2 cells", "type": "cell-based, mouse", "details": "for lhb transcription versus WT GnRH: 10 nM R31C; for lhb transcript levels: 10 nM, n = 7 in duplicates, p<0.01 for WT, not significant for R31C", "method": "Figure 7 Effects of treatments on lhb transcription and LH secretion. […] After five hours treatment cells were lysed for RNA extraction (Trizol®). Mouse lhb levels were analyzed by quantitative real time RT-qPCR. Values are expressed as individual ratios on 18S and represented as fold induction on vehicle as means ± SEM, **p<0.01. This experience was conducted n = 7 times in duplicates. (B) LH concentrations from LbetaT2 cells culture media. Cells were starved overnight in serum-free DMEM and incubated with 10 nM WT, 10 nM R31C, 10 nM WT +10 nM R31C, or vehicle for 5 hours. LH levels were measured by a combined rat/mouse RIA. Values are expressed as individual values and as means ± SEM, *p<0.05, ***p<0.001. The experiment was conducted four times and each sample was assayed in duplicates.\nLbetaT2 cells were grown at 10^6/well in 6-well plates and starved in serum-free DMEM 18 h before tests. […]\nLhb (murine LH beta subunit) transcript was quantified by real-time RT-PCR, using an ABI Step One Sequence Detector (Applied Biosystem, Foster City, CA) as previously described."}, "[1]": {"assay": "Peptide stability in solution, LC-MS/MS", "quoted_text": "LC-MS/MS was performed with Quattro-LCZ triple quadrupole mass spectrometer equipped with the orthogonal electrospray source (Micromass, Manchester, UK) to analyze peptides stability in solution. Peptides solutions (water and cell culture medium) were incubated 24-h at room temperature for these stability studies.\nPeptides were measured in aqueous solution at pH 7 and starved overnight at 37°C."}, "LbetaT2 cells": {"tested_on": "LbetaT2 cells", "assay": "Intracellular calcium mobilization (Fura2) in LbetaT2 cells", "type": "cell-based, murine", "details": "for calcium mobilisation: 10 nM, LbetaT2 cells", "method": "Figure 5 Effect of treatments on intracellular calcium mobilization. Cells were loaded with Fura 2-AM. At the time of the experiment 100 µM EGTA was added 30 sec before addition of 300 µM of CaCl2 (Ca^2+) to the medium as indicated, and cells were then stimulated with 10 nM of wild type (WT), mutant (R31C) or equimolar combination (10 nM WT +10 nM R31C) or vehicle for 3 min. In the upper panel, representative curves of single cell recording. Each experiment mean was analysed using One-way ANOVA followed by Tukey's Multiple comparison test. In the lower panels, histograms show the means ± SEM (n = 4) of the response to ligands as calcium peak and as area under the curve (AUC). […] Representative of at least three independent experiments, *p<0.05.\nLbetaT2 cells were kept in serum free medium overnight and then loaded with 2 µM Fura2-AM for 45 min at 37°C. The experiment was conducted in HEPES buffer (in mM; 116 NaCl, 5.6 KCl, 1.2 MgCl2, 5 NaHCO3, 1 NaH2PO4, 20 HEPES ph 7.4) in presence of extracellular Ca^2+ (EGTA 100 µM + CaCl2 300 µM). Single images of fluorescent emission at 510 nm under excitation at 340 and 380 nm were taken every 5 Sec. Changes in [Ca^2+]i in response to GnRHs were monitored using the Fura2 340/380 fluorescence ratio. Basal ratio was arbitrarily considered as 1. Ca^2+ responses over basal level were given either as maximal rise of [Ca^2+]i or as area under the curve (for 2 min after agonist addition)."}, "[2]": {"details": "R31C 10^−10 M to 10^−6 M in combination with WT GnRH at 10^−9 M"}, "[3]": {"details": "aqueous solution at pH 7, overnight at 37°C, mass spectrometry-coupled electrospray (Fig. S1)"}, "[4]": {"details": "10 nM R31C, 3 min, EGTA 100 µM + CaCl2 300 µM, n = 4, p<0.05"}}, "note": "“Also recorded” adds a separate entry of the source. Read-outs that look alike come from different tables or passages of the source.", "data": [{"smiles": "CC(C)C[C@H](NC(=O)CNC(=O)[C@H](Cc1ccc(O)cc1)NC(=O)[C@H](CO)NC(=O)[C@H](Cc1c[nH]c2ccccc12)NC(=O)[C@H](Cc1c[nH]cn1)NC(=O)[C@@H]1CCC(=O)N1)C(=O)N[C@@H](CS)C(=O)N1CCC[C@H]1C(=O)NCC(N)=O", "note": "[R31C GnRH]", "values": [{"measurement": "ERK1/2 phosphorylation versus WT GnRH", "setting": "ERK1/2 (LbetaT2 cells); 10 nM, LbetaT2 cells, four experiments", "value": "very low activity"}, {"measurement": "ERK1/2 phosphorylation versus WT GnRH", "setting": "ERK1/2 (LbetaT2 cells); 10 nM, LbetaT2 cells, four experiments, listed as R31C peptide", "value": "weaker responses"}, {"measurement": "effect of increasing R31C dose on ERK1/2 phosphorylation by WT GnRH", "setting": "ERK1/2 (LbetaT2 cells); R31C from 10 nM to 300 nM with 10 nM WT GnRH, 5 minutes exposure", "value": "did not reduce ERK1/2 phosphorylation"}, {"measurement": "maximal stimulation / agonism, SRE-luciferase", "setting": "human GnRH receptor; HEK293T, 5 h, R31C compared with WT", "value": "full agonist; also recorded: able to elicit the same maximal stimulation"}, {"measurement": "EC50", "setting": "human GnRH receptor; HEK293T, 5 h, n = 8 dose-response experiments, Arcsin \"P\" root transformation, spread not defined, p<0.0001, read-out: EC-50, SRE-luciferase (Fig. 3B)", "value": "313 ± 130", "unit": "nM"}, {"measurement": "impact of added R31C GnRH on SRE-luciferase with WT GnRH", "setting": "human GnRH receptor; [2]", "value": "failed to have any impact"}, {"measurement": "SRE-luciferase activity / potency", "setting": "human GnRH receptor; R31C GnRH versus WT", "value": "very low activity"}, {"measurement": "reduction of R31C agonist versus WT, SRE-luciferase", "setting": "human GnRH receptor; R31C versus WT, dose-response curves", "value": "~100", "unit": "fold"}, {"measurement": "receptors occupied in pre-incubation", "setting": "GnRH-R; R31C GnRH (10^−5 M in method and Fig. 2B), determined from the competition binding study", "value": 50, "unit": "%"}, {"measurement": "covalent binding to receptor / subsequent binding of radiolabeled GnRH analog after pre-incubation and washing", "setting": "GnRH-R", "value": "does not form covalent disulfide bonds with the receptor"}, {"measurement": "lhb transcription versus WT GnRH", "setting": "lhb (LbetaT2 cells); 5 hours", "value": "very low activity"}, {"measurement": "lhb transcription versus WT GnRH", "setting": "lhb (LbetaT2 cells); 5 hours, listed as R31C peptide", "value": "weaker responses"}, {"measurement": "influence of R31C GnRH on stimulation of lhb transcription by WT GnRH", "setting": "lhb (LbetaT2 cells); 10 nM WT + 10 nM R31C, 5 hours", "value": "unable to influence the stimulation of lhb transcription"}, {"measurement": "lhb transcript levels", "setting": "lhb (LbetaT2 cells); 5 hours", "value": "did not significantly increase these levels over baseline"}, {"measurement": "impact of added R31C GnRH on lhb transcription with WT GnRH", "setting": "lhb (LbetaT2 cells); [2]", "value": "failed to have any impact"}, {"measurement": "dimerization", "setting": "[1]; 24 h, room temperature, water and culture medium, LC-MS/MS", "value": "No dimerization"}, {"measurement": "formation of R31C dimers", "setting": "[1]; [3]", "value": "absent"}, {"measurement": "formation of smaller fragments", "setting": "[1]; [3]", "value": "negligible"}, {"measurement": "stability over 24-hours", "setting": "[1]; culture medium, room temperature, 24 h, LC-MS/MS", "value": "stable"}, {"measurement": "stability over 24-hours", "setting": "[1]; water, room temperature, 24 h, LC-MS/MS", "value": "stable"}, {"measurement": "calcium area under the curve (AUC) versus WT", "setting": "LbetaT2 cells; [4]", "value": "significantly reduced compared to WT; also recorded: significantly lower than WT"}, {"measurement": "calcium peak versus WT", "setting": "LbetaT2 cells; [4]", "value": "significantly reduced compared to WT; also recorded: significantly lower than WT"}, {"measurement": "calcium mobilisation", "setting": "LbetaT2 cells", "value": "very low activity"}, {"measurement": "calcium mobilisation", "setting": "LbetaT2 cells; listed as R31C peptide", "value": "weaker responses"}, {"measurement": "impact of added R31C GnRH on Ca2+ signaling with WT GnRH", "setting": "LbetaT2 cells; [2]", "value": "failed to have any impact"}]}, {"smiles": "CC(C)C[C@H](NC(=O)CNC(=O)[C@H](Cc1ccc(O)cc1)NC(=O)[C@H](CO)NC(=O)[C@H](Cc1c[nH]c2ccccc12)NC(=O)[C@H](Cc1c[nH]cn1)NC(=O)[C@@H]1CCC(=O)N1)C(=O)N[C@@H](CCCNC(=N)N)C(=O)N1CCC[C@H]1C(=O)NCC(N)=O", "note": "[WT GnRH, reference compound]", "values": [{"measurement": "time of maximal ERK1/2 phosphorylation", "setting": "ERK1/2 (LbetaT2 cells); 10 nM, LbetaT2 cells, 0-30 minutes, four experiments", "value": 5, "unit": "min"}, {"measurement": "EC50", "setting": "human GnRH receptor; HEK293T, 5 h, p<0.0001 WT vs R31C, read-out: EC-50, SRE-luciferase", "value": 4, "unit": "nM"}, {"measurement": "covalent binding to receptor / subsequent binding of radiolabeled GnRH analog after pre-incubation and washing", "setting": "GnRH-R", "value": "can be fully removed from the receptor"}, {"measurement": "receptors occupied in pre-incubation", "setting": "GnRH-R; WT GnRH at 10^−8 M", "value": 50, "unit": "%"}, {"measurement": "lhb transcript levels", "setting": "lhb (LbetaT2 cells); 5 hours", "value": "significantly increased lhb transcript levels"}, {"measurement": "formation of smaller fragments", "setting": "[1]; [3]", "value": "absent"}, {"measurement": "calcium mobilisation", "setting": "LbetaT2 cells", "value": "rapid and transient calcium mobilisation"}]}]}
